Data from PubChem BioAssay AID1963972 (Molecular Pharmacology Branch, DTP, NCI, 2024).

System: 945468-187-T-J2-PDC spheroids viability
Assay: Anticancer human tumor 945468-187-T-J2-PDC patient-derived rectal carcinoma cell line growth inhibition [PI3K]
Conditions: spheroids with HUVEC and MSC; for IC50: curve of first compound; for viability, T/C: stronger effect = lower value
How it was run: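 We assembled tumor spheroids that included a stromal compartment of HUVEC and MSCs, then exposed them to targeted agents alone and together with PI3K pathway inhibitors. Concentration series descended by half-log from clinically achievable Cmax levels. Viability served as the endpoint.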

[1] = second compound 0.00316 µM, first compound 0.000316 µM
[2] = second compound 0.00316 µM, first compound 0.001 µM
[3] = second compound 0.00316 µM, first compound 0.00316 µM
[4] = second compound 0.00316 µM, first compound 0.01 µM
[5] = second compound 0.00316 µM, first compound 0.0316 µM
[6] = second compound 0.00316 µM, first compound 0.1 µM
[7] = second compound 0.01 µM, first compound 0.000316 µM
[8] = second compound 0.01 µM, first compound 0.001 µM
[9] = second compound 0.01 µM, first compound 0.00316 µM
[10] = second compound 0.01 µM, first compound 0.01 µM
[11] = second compound 0.01 µM, first compound 0.0316 µM
[12] = second compound 0.01 µM, first compound 0.1 µM
[13] = second compound 0.0316 µM, first compound 0.000316 µM
[14] = second compound 0.0316 µM, first compound 0.001 µM
[15] = second compound 0.0316 µM, first compound 0.00316 µM
[16] = second compound 0.0316 µM, first compound 0.01 µM
[17] = second compound 0.0316 µM, first compound 0.0316 µM
[18] = second compound 0.0316 µM, first compound 0.1 µM
[19] = second compound 0.1 µM, first compound 0.000316 µM
[20] = second compound 0.1 µM, first compound 0.001 µM
[21] = second compound 0.1 µM, first compound 0.00316 µM
[22] = second compound 0.1 µM, first compound 0.01 µM
[23] = second compound 0.1 µM, first compound 0.0316 µM
[24] = second compound 0.1 µM, first compound 0.1 µM
[25] = second compound 0.316 µM, first compound 0.000316 µM
[26] = second compound 0.316 µM, first compound 0.001 µM
[27] = second compound 0.316 µM, first compound 0.00316 µM
[28] = second compound 0.316 µM, first compound 0.01 µM
[29] = second compound 0.316 µM, first compound 0.0316 µM
[30] = second compound 0.316 µM, first compound 0.1 µM
[31] = second compound 1 µM, first compound 0.000316 µM
[32] = second compound 1 µM, first compound 0.001 µM
[33] = second compound 1 µM, first compound 0.00316 µM
[34] = second compound 1 µM, first compound 0.01 µM
[35] = second compound 1 µM, first compound 0.0316 µM
[36] = second compound 1 µM, first compound 0.1 µM
[37] = second compound 0.00316 µM, first compound 0.316 µM
[38] = second compound 0.00316 µM, first compound 1 µM
[39] = second compound 0.00316 µM, first compound 3.16 µM
[40] = second compound 0.00316 µM, first compound 10 µM
[41] = second compound 0.01 µM, first compound 0.316 µM
[42] = second compound 0.01 µM, first compound 1 µM
[43] = second compound 0.01 µM, first compound 3.16 µM
[44] = second compound 0.01 µM, first compound 10 µM
[45] = second compound 0.0316 µM, first compound 0.316 µM
[46] = second compound 0.0316 µM, first compound 1 µM
[47] = second compound 0.0316 µM, first compound 3.16 µM
[48] = second compound 0.0316 µM, first compound 10 µM
[49] = second compound 0.1 µM, first compound 0.316 µM
[50] = second compound 0.1 µM, first compound 1 µM
[51] = second compound 0.1 µM, first compound 3.16 µM
[52] = second compound 0.1 µM, first compound 10 µM
[53] = second compound 0.316 µM, first compound 0.316 µM
[54] = second compound 0.316 µM, first compound 1 µM
[55] = second compound 0.316 µM, first compound 3.16 µM
[56] = second compound 0.316 µM, first compound 10 µM
[57] = second compound 1 µM, first compound 0.316 µM
[58] = second compound 1 µM, first compound 1 µM
[59] = second compound 1 µM, first compound 3.16 µM
[60] = second compound 1 µM, first compound 10 µM
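Also: spheroids exposed to compounds for seven days before reading.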

CC(=O)c1c(C)c2cnc(Nc3ccc(N4CCNCC4)cn3)nc2n(C2CCCC2)c1=O + COc1c(OCCCN2CCOCC2)ccc2c3n(c(=NC(=O)c4cnc(N)nc4)nc12)CCN3
IC50 (second compound 0.00316 µM): > 100 nM | IC50 (second compound 0.01 µM): > 100 nM | IC50 (second compound 0.0316 µM): > 100 nM | IC50 (second compound 0.1 µM): > 100 nM | IC50 (second compound 0.316 µM): < 0.316 nM | IC50 (second compound 1 µM): < 0.316 nM | viability, T/C [1]: 101% | viability, T/C [2]: 96.6% | viability, T/C [3]: 110% | viability, T/C [4]: 103% | viability, T/C [5]: 96.3% | viability, T/C [6]: 112% | viability, T/C [7]: 135% | viability, T/C [8]: 135% | viability, T/C [9]: 120% | viability, T/C [10]: 108% | viability, T/C [11]: 110% | viability, T/C [12]: 130% | viability, T/C [13]: 115% | viability, T/C [14]: 95.4% | viability, T/C [15]: 101% | viability, T/C [16]: 105% | viability, T/C [17]: 118% | viability, T/C [18]: 113% | viability, T/C [19]: 102% | viability, T/C [20]: 101% | viability, T/C [21]: 115% | viability, T/C [22]: 80% | viability, T/C [23]: 85.5% | viability, T/C [24]: 89.9% | viability, T/C [25]: 38.6% | viability, T/C [26]: 36.7% | viability, T/C [27]: 45.7% | viability, T/C [28]: 40.9% | viability, T/C [29]: 36.2% | viability, T/C [30]: 37.4% | viability, T/C [31]: 24.2% | viability, T/C [32]: 21.4% | viability, T/C [33]: 28.7% | viability, T/C [34]: 21.6% | viability, T/C [35]: 22.8% | viability, T/C [36]: 18.5%

CC(C)n1nc(-c2ccc3oc(N)nc3c2)c2c(N)ncnc21 + COc1c(OCCCN2CCOCC2)ccc2c3n(c(=NC(=O)c4cnc(N)nc4)nc12)CCN3
IC50 (second compound 0.00316 µM): > 100 nM | IC50 (second compound 0.01 µM): > 100 nM | IC50 (second compound 0.0316 µM): 60.5 nM | IC50 (second compound 0.1 µM): 20.4 nM | IC50 (second compound 0.316 µM): < 0.316 nM | IC50 (second compound 1 µM): < 0.316 nM | viability, T/C [1]: 82.4% | viability, T/C [2]: 83.8% | viability, T/C [3]: 81.7% | viability, T/C [4]: 84.3% | viability, T/C [5]: 73.6% | viability, T/C [6]: 61.1% | viability, T/C [7]: 120% | viability, T/C [8]: 109% | viability, T/C [9]: 80.7% | viability, T/C [10]: 82.7% | viability, T/C [11]: 66.6% | viability, T/C [12]: 66.1% | viability, T/C [13]: 77.1% | viability, T/C [14]: 85.8% | viability, T/C [15]: 116% | viability, T/C [16]: 86% | viability, T/C [17]: 79.1% | viability, T/C [18]: 27.4% | viability, T/C [19]: 76.2% | viability, T/C [20]: 76.2% | viability, T/C [21]: 61.5% | viability, T/C [22]: 75.6% | viability, T/C [23]: 36.2% | viability, T/C [24]: 16.7% | viability, T/C [25]: 36.5% | viability, T/C [26]: 31.8% | viability, T/C [27]: 26.5% | viability, T/C [28]: 25.4% | viability, T/C [29]: 17.6% | viability, T/C [30]: 10.9% | viability, T/C [31]: 20.2% | viability, T/C [32]: 22.1% | viability, T/C [33]: 17.7% | viability, T/C [34]: 13.8% | viability, T/C [35]: 12.1% | viability, T/C [36]: 11.3%

CCCS(=O)(=O)Nc1ccc(F)c(C(=O)c2c[nH]c3ncc(-c4ccc(Cl)cc4)cc23)c1F + COc1c(OCCCN2CCOCC2)ccc2c3n(c(=NC(=O)c4cnc(N)nc4)nc12)CCN3
IC50 (second compound 0.00316 µM): 5780 nM | IC50 (second compound 0.01 µM): 6430 nM | IC50 (second compound 0.0316 µM): 5580 nM | IC50 (second compound 0.1 µM): 6050 nM | IC50 (second compound 0.316 µM): < 31.6 nM | IC50 (second compound 1 µM): < 31.6 nM | viability, T/C [5]: 95.3% | viability, T/C [6]: 106% | viability, T/C [37]: 111% | viability, T/C [38]: 116% | viability, T/C [39]: 89.2% | viability, T/C [40]: 14.6% | viability, T/C [11]: 109% | viability, T/C [12]: 82% | viability, T/C [41]: 79.8% | viability, T/C [42]: 92.5% | viability, T/C [43]: 105% | viability, T/C [44]: 22.9% | viability, T/C [17]: 100% | viability, T/C [18]: 91.4% | viability, T/C [45]: 90.2% | viability, T/C [46]: 103% | viability, T/C [47]: 75.2% | viability, T/C [48]: 24.2% | viability, T/C [23]: 73.1% | viability, T/C [24]: 90.5% | viability, T/C [49]: 77.7% | viability, T/C [50]: 77.6% | viability, T/C [51]: 77.2% | viability, T/C [52]: 29% | viability, T/C [29]: 38.7% | viability, T/C [30]: 37% | viability, T/C [53]: 36.9% | viability, T/C [54]: 34% | viability, T/C [55]: 35.3% | viability, T/C [56]: 21.5% | viability, T/C [35]: 21.4% | viability, T/C [36]: 22.6% | viability, T/C [57]: 21.9% | viability, T/C [58]: 19.5% | viability, T/C [59]: 25.7% | viability, T/C [60]: 15.6%

CNC(=O)c1ccc(N2C(=S)N(c3ccc(C#N)c(C(F)(F)F)c3)C(=O)C2(C)C)cc1F + COc1c(OCCCN2CCOCC2)ccc2c3n(c(=NC(=O)c4cnc(N)nc4)nc12)CCN3
IC50 (second compound 0.00316 µM): > 10000 nM | IC50 (second compound 0.01 µM): > 10000 nM | IC50 (second compound 0.0316 µM): > 10000 nM | IC50 (second compound 0.1 µM): > 10000 nM | IC50 (second compound 0.316 µM): < 31.6 nM | IC50 (second compound 1 µM): < 31.6 nM | viability, T/C [5]: 107% | viability, T/C [6]: 86.3% | viability, T/C [37]: 94.9% | viability, T/C [38]: 113% | viability, T/C [39]: 91.1% | viability, T/C [40]: 80% | viability, T/C [11]: 95.5% | viability, T/C [12]: 92.2% | viability, T/C [41]: 108% | viability, T/C [42]: 110% | viability, T/C [43]: 90.9% | viability, T/C [44]: 72.1% | viability, T/C [17]: 87.8% | viability, T/C [18]: 93.1% | viability, T/C [45]: 113% | viability, T/C [46]: 111% | viability, T/C [47]: 93% | viability, T/C [48]: 109% | viability, T/C [23]: 102% | viability, T/C [24]: 94% | viability, T/C [49]: 95.9% | viability, T/C [50]: 81.2% | viability, T/C [51]: 82% | viability, T/C [52]: 64.4% | viability, T/C [29]: 33.8% | viability, T/C [30]: 39.6% | viability, T/C [53]: 48.2% | viability, T/C [54]: 38.6% | viability, T/C [55]: 38.5% | viability, T/C [56]: 34.7% | viability, T/C [35]: 18.2% | viability, T/C [36]: 21.1% | viability, T/C [57]: 17.2% | viability, T/C [58]: 23.1% | viability, T/C [59]: 23.3% | viability, T/C [60]: 21%
